# Article PMC8760490, “Discovery of novel furanylbenzamide inhibitors that target oncogenic tyrosine phosphatase SHP2 in leukemia cells” (The Journal of Biological Chemistry, 2021)
# Experiments:
# [1] = system: Kasumi-1 acute myeloid leukemia (AML) cells; test: Cell viability (CellTiter-Glo), Kasumi-1; type: cell-based; conditions: for effect on Kasumi-1 cell growth: various concentrations, 3 days
# Description: (§1) Inhibition of SHP2 has been reported to inhibit the growth of cancer cells including Kasumi-1 acute myeloid leukemia (AML) and KYSE-520 esophageal cancer cells ([30]). […] Thus, we treated two TNBC cell lines, BT-549 and MDA-MB-468, with SBI-4668 or the SHP2 allosteric inhibitor SHP099 at various concentrations and determined cell viability after 72 h, compared with the vehicle control (Fig. 4C). […] Next, we performed an 11-day colony formation assay with TNBC cells treated with SBI-4668 or SHP099 at 5, 10, or 20 μM (Fig. 4D).
# (§2) Viability of AML and esophageal carcinoma cells was assessed using the ATP-depletion assay CellTiter-Glo (Promega). Cells were harvested at 1 × 10^6/ml to 2 × 10^6 cells/ml with cell numbers determined by trypan blue using the Countess Cell counter (Thermo Scientific) and resuspended in culture media. About 3000 cells (in 20 μl) were seeded in a 384-well format white and clear-bottom microplate (catalog no.: 781098; Greiner) spotted with test compound or vehicle control (DMSO) using an Echo 555 Liquid Handler. Cells were incubated for 3 days, before 10 μl of CellTiter-Glo reagent mix was added to each well and incubated for 10 min at RT. Luminescence was read on a Tecan Spark Multimode Microplate Reader, and data were analyzed using GraphPad Prism software.
# [2] = molecular target: T1, STEP (280–566) catalytic domain (Homo sapiens, UniProt P54829); test: DiFMUP phosphatase inhibition assay, STEP; type: biochemical; conditions: for IC50: catalytic domain, DiFMUP at Km (4 μM); for selectivity for SHP2 over STEP: from IC50 values against catalytic domains
# T1 construct: the codon-optimized STEP (280–566) catalytic domains; His tag (pET-15b) (N); made in house; host or cells: E. coli BL21(DE3)
# T1 sequence (P54829 280-565 limits assumed): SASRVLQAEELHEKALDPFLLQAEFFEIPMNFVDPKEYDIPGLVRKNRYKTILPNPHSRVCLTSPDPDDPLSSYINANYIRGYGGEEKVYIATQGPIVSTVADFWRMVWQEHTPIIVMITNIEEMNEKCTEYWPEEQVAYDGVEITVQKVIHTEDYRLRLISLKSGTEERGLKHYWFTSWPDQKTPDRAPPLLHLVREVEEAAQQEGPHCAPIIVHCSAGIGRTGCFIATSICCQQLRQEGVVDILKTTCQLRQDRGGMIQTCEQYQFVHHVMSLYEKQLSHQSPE
# Description: Selectivity is one of the biggest challenges in PTP inhibitor development. […] Similar to SHP2, we adapted a 384-well plate format DiFMUP assay for recombinant PTP1B and STEP and performed Michaelis–Menten experiments to determine DiFMUP Km values for each phosphatase. IC50 values of our inhibitors for PTP1B and STEP were determined in 10-point dose–response assays with DiFMUP used at the concentration corresponding to the respective Km value. […] Other inhibitors with good relative selectivity for SHP2 included SBI-4668 (13-fold selective over PTP1B; 73-fold selective over STEP) and SBI-3404 (fivefold selective over PTP1B; >71-fold selective over STEP).
# Recombinant human full-length SHP2 (1–594) WT and E76K mutants, as well as the SHP2cat (248–527), were expressed and purified as described before ([36], [41]). Recombinant human PTP1B (1–300) and the codon-optimized STEP (280–566) catalytic domains were cloned into PET-15b and expressed as N-His-tagged fusion proteins. For expression, transformed BL21(DE3) cells were grown and induced similar as described for SHP2. Collected cells were resuspended in lysis buffer (25 mM Tris, pH 7.5, 300 mM NaCl, 50 mM imidazole, and 10% glycerol) with 100 mg/l RNaseA and were lysed with two passages using a microfluidizer. The lysate was clarified by centrifugation at 15,000g for 50 min and applied to nickel–nitrilotriacetic acid resin. The column resin was washed, and the PTP1B or STEP protein was eluted in lysis buffer at 300 mM imidazole. The PTP1B or STEP protein was further purified by S75 size-exclusion chromatography in 50 mM Tris, pH 7.5, 50 mM NaCl. The eluted peak fractions were supplemented with tris(2-carboxyethyl)phosphine to 10 mM, concentrated by ultrafiltration, and stored at −80 °C. The purified yield of PTP1B was 33 mg/l cell culture; the yield of STEP was 16 mg/l cell culture.
# SHP2 inhibitors were tested at RT in a 384-well plate format standard phosphatase fluorescence intensity assay using DiFMUP (Invitrogen/Thermo Fisher Scientific) as a substrate and a total reaction volume of 25 μl. SHP2 inhibitors or vehicle (DMSO) were spotted in triplicate into a black Greiner FLUOTRAC 200 384-well microplate (catalog no.: 781076; Greiner) for a 10-point dose–response assay using an Echo 555 Liquid Handler (Labcyte, Inc). PTP working solutions were prepared at a 0.625 nM concentration (for a final concentration of 0.5 nM) in buffer containing 50 mM Bis–Tris, pH 6.0, 50 mM NaCl, 5 mM DTT, and 0.01% Tween-20. Prior to the assay, a dually phosphorylated IRS-1 peptide (625 nM [500 nM final] ([30])) was added to full-length WT SHP2 working solutions and incubated for 20 min. DiFMUP working solutions at 5× final concentration were prepared in 50 mM Bis–Tris, pH 6.0, 50 mM NaCl, and 0.01% Tween-20. About 20 μl of PTP working solution was dispensed into the microplate and incubated with inhibitor for 20 min at RT. […] The reaction was initiated by addition of 5 μl DiFMUP working solutions. Fluorescence intensity was measured in kinetic mode (every minute for 7 or 10 min) using a Tecan Spark Multimode Microplate Reader (Tecan) with an excitation wavelength of 360 nm and an emission wavelength of 460 nm. The initial rates were determined from the linear progression curves of the PTP reaction. The nonenzymatic hydrolysis of the substrate was corrected by using a control without addition of enzyme. IC50 values were calculated from the corrected initial rates by nonlinear regression using the program GraphPad Prism, version 8 (GraphPad Software, Inc) software. Dose–response inhibition assays of SHP2cat using the substrate OMFP were performed similarly as described previously for DiFMUP. OMFP was used at a concentration corresponding to its Km value for SHP2cat (50 μM final). Fluorescence intensity was measured in kinetic mode (every minute for 10 min) using a Tecan Spark Multimode Microplate Reader with an excitation wavelength of 485 nm and an emission wavelength of 535 nm. […]
# [3] = system: KYSE-520 esophageal cancer cells; test: Cell viability (CellTiter-Glo), KYSE-520; type: cell-based; conditions: for effect on KYSE-520 cell growth: various concentrations, 3 days
# Description: as §1, §2
Compound,effect on Kasumi-1 cell growth [1],IC50 [2] [µM],selectivity for SHP2 over STEP [2] [fold],effect on KYSE-520 cell growth [3],"IC50 ([1]; Homo sapiens, Kasumi 1, 72 h, 3 days in culture) [µM]","IC50 ([3]; Homo sapiens, KYSE-520, 72 h, 3 days in culture) [µM]"
"Nc1ccc(NC(=O)c2cc(-c3ccc(/C=C4\Sc5ccccc5C4=O)o3)ccc2O)cc1 [SBI-2130, (Z)-N-(4-Aminophenyl)-2-hydroxy-5-(5-((3-oxobenzo[b]thiophen-2(3H)-ylidene)methyl)furan-2-yl)benzamide]",dose-dependently inhibited cancer cell growth,44,200,dose-dependently inhibited cancer cell growth,,
"O=C1CCCC1=Cc1ccc(-c2ccc(O)c(C(=O)Nc3ccccc3)c2)o1 [SBI-3192, 2-Hydroxy-5-(5-((2-oxocyclopentylidene)methyl)furan-2-yl)-N-phenylbenzamide]",,27,,,,
"N#Cc1cc(-c2ccc(/C=C3\Sc4ccccc4C3=O)o2)ccc1O [SBI-3404, (Z)-2-Hydroxy-5-(5-((3-oxobenzo[b]thiophen-2(3H)-ylidene)methyl)furan-2-yl)benzonitrile]",dose-dependently inhibited cancer cell growth,,> 71,dose-dependently inhibited cancer cell growth,,
"O=C1/C(=C/c2ccc(-c3ccc(O)c(-c4nn[nH]n4)c3)o2)Sc2ccccc21 [SBI-3405, (Z)-2-((5-(4-Hydroxy-3-(2H-tetrazol-5-yl)phenyl)furan-2-yl)methylene)benzo[b]thiophen-3(2H)-one]",,7.7,,,,
"O=C(Nc1ccccc1)c1cc(-c2ccc(/C=C3\Sc4ccccc4C3=O)o2)ccc1O [SBI-4668, (Z)-2-Hydroxy-5-(5-((3-oxobenzo[b]thiophen-2(3H)-ylidene)methyl)furan-2-yl)-N-phenylbenzamide]",dose-dependently inhibited cancer cell growth,53,73,dose-dependently inhibited cancer cell growth,8.5,5.4
